Measurements taken from patent US12485263B2, “Device for delivering an antimicrobial composition into a medical device” (ICU Medical, Inc., priority 2018, dated 2025).

What was measured:
[1] = 60 kilogram person; cited from earlier work
[2] = test system: Gram positive bacteria, Gram negative bacteria, and fungi; assay: Kill of microbes by dissolved chlorhexidine / chlorhexidine acetate (stated, no test protocol)

Compound: CC(=O)O.CC(=O)O.NC(=N\CCCCCC/N=C(N)/N=C(\N)Nc1ccc(Cl)cc1)/N=C(\N)Nc1ccc(Cl)cc1 [chlorhexidine acetate]
- dose considered safe for direct injection into bloodstream [1]: ≥ 500 µg
- concentration that can quickly kill most microbes ([2]; Gram positive bacteria, Gram negative bacteria, and fungi): greater than 200 μg/mL
- time to kill microbes ([2]; at concentration greater than 200 μg/mL, in many cases): under 1 minute
